This note sets out measurements from publication PMC2667214, “End-Tagging of Ultra-Short Antimicrobial Peptides by W/F Stretches to Facilitate Bacterial Killing” (PLoS ONE, 2009).

Residues, ends and D or L forms follow the SMILES beside them. No end group written: not given here.

For data set [1], the target named is T1, S. aureus V8 proteinase (Staphylococcus aureus, UniProt P0C1U8).
T1 construct: purchased BioCol GmbH (Potsdam, Germany)
It is filed as in vitro ADME. The note with it: peptide 1 µg, V8 proteinase 0.1 µg, 30 µl, 3 hours 37°C, SDS-PAGE 16.5% Tris-Tricine, Coomassie. Here is the method:
(§1) Peptides (1 µg) were incubated at 37°C with S. aureus aureolysin (0.1 µg, 25000 units/mg), S. aureus V8 proteinase (0.1 µg, 2000 mU), both from BioCol GmbH (Potsdam, Germany), or neutrophil elastase (0.4 µg, 29 units/mg; Calbiochem (La Jolla, USA)) in a total volume of 30 µl for 3 hours. The materials were analyzed on 16.5% precast sodium dodecyl sulfate polyacrylamide (SDS-PAGE) Tris-Tricine gels (BioRad, Hercules, USA) and analyzed after staining with Coomassie Blue R-250 (Merck, Darmstadt, Germany).
(§2) Figure 5 (A) Protease sensitivity of peptides. KNK10 and KNK10-WWWWW were incubated with (+) or without (−) the S. aureus enzymes aureolysin (Aur), V8 proteinase (V8), or human leukocyte elastase (HLE), and analyzed by SDS-PAGE (16.5% Tris-Tricine gels). (B) Activities of peptides in an ex vivo skin infection model. Pig skin was inoculated with E. coli ATCC 25922 (upper panel) or S. aureus ATCC 29213 (lower panel). Peptides at 1 mM were added after an incubation time of 4 h. Bacteria were collected after 2 h and cfu determined (mean values are presented, n = 6). Note the logarithmic scale on the y-axis. (In Figure 5B, the difference between tagged and non-tagged peptide is statistically significant in all cases (P<0.002, one way ANOVA).)

Data set [2] concerns the target T2, S. aureus aureolysin (Staphylococcus aureus, UniProt P81177).
T2 construct: purchased BioCol GmbH (Potsdam, Germany)
It is filed as in vitro ADME. As to conditions: peptide 1 µg, aureolysin 0.1 µg, 30 µl, 3 hours 37°C, SDS-PAGE 16.5% Tris-Tricine, Coomassie. As for the experimental part: as §1, §2

Data set [3] addresses T3, human leukocyte elastase (Homo sapiens, UniProt P08246).
T3 construct: purchased Calbiochem (La Jolla, USA)
T3 sequence (P08246 30-267): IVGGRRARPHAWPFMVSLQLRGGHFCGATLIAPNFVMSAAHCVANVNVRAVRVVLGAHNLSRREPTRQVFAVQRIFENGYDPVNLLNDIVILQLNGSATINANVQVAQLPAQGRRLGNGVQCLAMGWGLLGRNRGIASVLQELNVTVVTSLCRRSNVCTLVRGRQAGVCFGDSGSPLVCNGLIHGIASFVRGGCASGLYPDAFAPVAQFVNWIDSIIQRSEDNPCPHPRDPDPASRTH
The data set can be described thus: Protease sensitivity assay. It is filed as in vitro ADME. The note with it: peptide 1 µg, neutrophil elastase 0.4 µg, 30 µl, 3 hours 37°C, SDS-PAGE 16.5% Tris-Tricine, Coomassie. Here is the method:
as §1, §2

Data set [4] relates to Escherichia coli ATCC 25922. It is filed as cell-based. As to conditions: ATCC 25922, 100. Here is the method:
(§3) Essentially as described earlier, [31] bacteria were grown to mid-logarithmic phase in 10 ml of full-strength (3% w/v) trypticase soy broth (TSB) (Becton-Dickinson, Cockeysville, USA). The microorganisms were then washed once with 10 mM Tris, pH 7.4. Subsequently, 4×10^6 bacterial colony forming units were added to 15 ml of the underlay agarose gel, consisting of 0.03% (w/v) TSB, 1% (w/v) low electroendosmosis type (EEO) agarose (Sigma-Aldrich, St. Louis, USA) and 0.02% (v/v) Tween 20 (Sigma-Aldrich, St. Louis, USA). The underlay was poured into a Ø 144 mm petri dish. After agarose solidification, 4 mm-diameter wells were punched and 6 µl of peptide with required concentration added to each well. Plates were incubated at 37°C for 3 hours to allow diffusion of the peptides. The underlay gel was then covered with 15 ml of molten overlay (6% TSB and 1% Low-EEO agarose in distilled H2O). […]
(§4) Figure 1 Antibacterial and hemolytic activity of peptides. (A) Antibacterial activity of PEPscreen peptides as assessed by radial diffusion assay (RDA) in the presence and absence of 0.15 M NaCl against E. coli ATCC 25922 and S. aureus ATCC 29213, as well as hemolysis. […] The absorbance of hemoglobin release was measured at 540 nm and is expressed as % of Triton X-100 induced hemolysis. […]

The test system of data set [5] is Staphylococcus aureus ATCC 29213. It is filed as cell-based. The note with it: ATCC 29213, 100. As for the experimental part: as §3, §4

T2 sequence (P81177 209-509): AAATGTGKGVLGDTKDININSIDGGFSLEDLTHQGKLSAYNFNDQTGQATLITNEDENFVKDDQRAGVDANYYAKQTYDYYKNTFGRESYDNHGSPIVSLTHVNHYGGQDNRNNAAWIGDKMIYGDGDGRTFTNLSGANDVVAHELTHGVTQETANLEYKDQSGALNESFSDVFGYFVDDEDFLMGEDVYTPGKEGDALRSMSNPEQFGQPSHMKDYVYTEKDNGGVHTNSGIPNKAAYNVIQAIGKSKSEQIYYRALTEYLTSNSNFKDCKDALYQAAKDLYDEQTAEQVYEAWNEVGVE
T1 sequence (P0C1U8 69-336): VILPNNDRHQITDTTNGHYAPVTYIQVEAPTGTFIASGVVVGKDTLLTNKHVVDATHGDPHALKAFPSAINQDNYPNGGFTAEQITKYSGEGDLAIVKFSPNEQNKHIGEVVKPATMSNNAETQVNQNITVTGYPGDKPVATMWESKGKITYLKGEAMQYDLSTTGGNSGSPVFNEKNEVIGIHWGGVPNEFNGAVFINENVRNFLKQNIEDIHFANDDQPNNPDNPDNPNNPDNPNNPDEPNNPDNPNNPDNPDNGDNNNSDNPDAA

Take KNKGKKNGKH [KNK10]: the “stability against proteolytic degradation (in words)” value (“stability” below) in data set [1] and in data set [2] was “good stability” in each case.
As for `CC[C@H](C)[C@H](NC(=O)[C@H](CCCCN)NC(=O)[C@H](CCC(=O)O)NC(=O)[C@H](CCCCN)NC(=O)[C@H](CO)NC(=O)[C@H](CCCCN)NC(=O)[C@H](CCCNC(=N)N)NC(=O)[C@H](Cc1ccccc1)NC(=O)[C@H](Cc1ccccc1)NC(=O)[C@H](CC(=O)O)NC(=O)CNC(=O)[C@H](CC(C)C)NC(=O)[C@@H](N)CC(C)C)C(=O)NCC(=O)N[C@@H](CCCCN)C(=O)N[C@@H](CCC(=O)O)C(=O)N[C@@H](Cc1ccccc1)C(=O)N[C@@H](CCCCN)C(=O)N[C@@H](CCCNC(=N)N)C(=O)N[C@H](C(=O)N[C@H](C(=O)N[C@@H](CCC(N)=O)C(=O)N[C@@H](CCCNC(=N)N)C(=O)N[C@H](C(=O)N[C@@H](CCCCN)C(=O)N[C@@H](CC(=O)O)C(=O)N[C@@H](Cc1ccccc1)C(=O)N[C@@H](CC(C)C)C(=O)N[C@@H](CCCNC(=N)N)C(=O)N[C@@H](CC(N)=O)C(=O)N[C@@H](CC(C)C)C(=O)N[C@H](C(=O)N1CCC[C@H]1C(=O)N[C@@H](CCCNC(=N)N)C(=O)N[C@H](C(=O)N[C@@H](CCC(=O)O)C(=O)N[C@@H](CO)C(=O)O)[C@@H](C)O)C(C)C)[C@@H](C)CC)C(C)C)[C@@H](C)CC` [LL-37], the “stability” value in data set [3], in data set [1] and in data set [2] was “substantial degradation” in each case.
With `N[C@@H](Cc1c[nH]c2ccccc12)C(=O)N[C@@H](Cc1c[nH]c2ccccc12)C(=O)N[C@@H](Cc1c[nH]c2ccccc12)C(=O)O` [WWW] (H-Trp-Trp-Trp-OH), the “clearance zone in RDA” value in data set [4] and in data set [5] was 0 mm each time.
With KNKGKKNGKHWWWWW [KNK10-WWWWW], the “stability” value in data set [1] and in data set [2] was “good stability” throughout.
